Values joined by “and” are separate entries in the source; they are usually repeats but may differ in a detail not shown here. Identical values can stand only once.
System: urethra/internal sphincter
Experiment: Urethral perfusion pressure, vesicular pressure and external sphincter EMG in anaesthetised female rats
Assay type: in vivo, rat
Procedure: Female Sprague-Dawley rats (225–350 g) were anaesthetised using urethane. The bladder was exposed through a midline incision into the abdomen and intravesicular pressure was recorded via a catheter inserted into the bladder. A second catheter was inserted into the bladder to allow infusion of saline using a syringe pump when required. A third catheter was inserted into the bladder and wedged into position in the neck of the bladder with the catheter extending into the urethra. This set-up allowed constant infusion of saline into the urethra whilst urethral pressure was recorded. Changes in urethral pressure are assumed to reflect changes in urethral resistance. In each animal, electromyographic (EMG) recordings were made of urethral striated muscle activity by inserting 2 fine copper electrodes either side of the urethral opening.
Once stable, bladder and urethral pressures were recorded, the bladder was inflated by direct infusion of physiological saline into the bladder at a rate of 0.046 ml/min. This rate approximates the maximum hourly diuresis rate. Infusion into the bladder was terminated prior to evoking micturition and the bladder volume maintained. During and after saline infusion, simultaneous recordings were made of urethral perfusion pressure and of external sphincter EMG activity. Once these parameters had stabilised, autonomic drive to the lower urinary tract was inhibited by administration of hexamethonium (10 mg/kg i.v.) and changes to urethral perfusion pressure and external sphincter EMG recorded. Decamethonium (30 mg/kg i.v.) was then added to remove striated muscle activity. In one group of animals, prior to intravesicular infusion of saline a single bolus dose of MCI-225 was administered (3 mg/kg i.v.). In a second group of animals a bolus dose of vehicle was administered. The effect of MCI-225 and vehicle was determined by analysing the changes in urethral perfusion pressure and external sphincter EMG activity during and after infusion and following administration of the ganglion blocker hexamethonium and then finally decamethonium to block the striated muscle activity of the external sphincter.

## Cc1cc2c(-c3ccccc3F)nc(N3CCNCC3)nc2s1.Cl.O [MCI-225, 4-(2-Fluorophenyl)-6-methyl-2-(1-piperazinyl)thieno[2,3-D]pyrimidine monohydrate hydrochloride]
3 mg/kg i.v., anaesthetised female rats
  Effect on tone of the urethra/internal sphincter: increased the tone of the urethra/internal sphincter
3 mg/kg i.v., after hexamethonium 10 mg/kg i.v. then decamethonium 30 mg/kg i.v., vehicle 44±4%
  Decrease in urethral perfusion pressure after decamethonium, from values before hexamethonium: 64±7%
3 mg/kg i.v., after hexamethonium 10 mg/kg i.v., compared with vehicle-treated animals
  Fall in external sphincter activity (EUS-EMG) after hexamethonium: Larger falls
3 mg/kg i.v., after hexamethonium 10 mg/kg i.v., vehicle 35±7%
  Drop in urethral perfusion pressure after hexamethonium: 55±5%
3 mg/kg i.v., baseline vs after intravesicular infusion, p=0.04 Students t test, vehicle 29%
  Increase in urethral pressure from baseline: 77%
Anaesthetized female rats, after intravesicular saline infusion, 3 mg kg^-1 i.v., n=3
  Vesicular pressure (VP) after intravesicular infusion: 8 ± 1 mmHg
Anaesthetized female rats, after intravesicular saline infusion, 3 mg kg^-1 i.v., n=3, monohydrate hydrochloride
  Urethral perfusion pressure (UP) after intravesicular infusion: 23±2 mmHg
Anaesthetized female rats, baseline before intravesicular infusion, 3 mg kg^-1 i.v., n=3, monohydrate hydrochloride
  Baseline urethral perfusion pressure (UP): 13±1 mmHg and 13 ± 2 mmHg

Source: US7220748B2, “Use of 4-(2-Flurophenyl)-6-methyl-2-(1-piperazinyl)thieno(2,3-D)-pyrimidine for treating of urinary incontinence” (Arachnova Therapeutics Ltd., priority 2002, dated 2007)
